# Data reported in ChEMBL document CHEMBL1138448, “Synthesis, biological evaluation, and molecular docking of Ugi products containing a zinc-chelating moiety as novel inhibitors of histone deacetylases” (J Med Chem, 2009).
# The source made the active and inactive calls. The rule behind the calls is not given here.
# How the values were obtained:
# SH-SY5Y [1] = experiment: Cytotoxicity against human SH-SY5Y cells assessed as cell viability after 48 hrs by MTT assay; type: functional, cell-based
# SH-SY5Y [2] = experiment: Cytotoxicity against human SH-SY5Y cells assessed as cell viability at 10 uM after 48 hrs by MTT assay relative to control; type: functional; conditions: for viability at 10 µM: Homo sapiens, SH-SY5Y, 48 h, read-out: Activity
# [3] = biological target: Histone deacetylase (Homo sapiens) (UniProt Q13547+O15379+Q9UBN7+Q92769+Q9UQL6+Q8WUI4+Q9BY41+Q96DB2+P56524+Q9UKV0+Q969S8); conditions: SH-SY5Y, at 10 µM
# Description: Inhibition of HDAC in human SHSY5Y cells at 10 uM by fluorimetric cellular activity assay
# SH-SY5Y [4] = experiment: Cell cycle arrest in human SH-SY5Y cells assessed as accumulation at G2/M phase at 3 uM after 16 hrs by flow cytometry; type: functional
# Histone deacetylase = experiment: Inhibition of HDAC in human SHSY5Y cells by fluorimetric cellular activity assay; type: cell-based; conditions: sh-sy5y
SMILES,IC50 (SH-SY5Y [1]) [µM],viability at 10 µM (SH-SY5Y [2]) [%],other results
O=C(CCCCCC(=O)N(Cc1ccccc1)C(Cc1ccccc1)C(=O)NC1CCCCC1)NO (stereo not given),2.5,27.4,inhibition [3]: Active; Activity (SH-SY5Y [4]): 34.3%; IC50 (Histone deacetylase): 1.2 µM
CCCCCCC(C(=O)NC1CCCCC1)N(CCc1ccccc1)C(=O)CCCCCC(=O)NO (stereo not given),2.9,35,–
O=C(CCCCCC(=O)N(CCc1ccccc1)C(Cc1ccccc1)C(=O)NCCc1ccccc1)NO (stereo not given),2.9,30.2,–
O=C(CCCCCCC(=O)N(Cc1ccccc1)C(Cc1ccccc1)C(=O)NCCc1ccccc1)NO (stereo not given),–,53.1,–
O=C(CCCCCCC(=O)N(Cc1ccccc1)C(Cc1ccc(-c2ccccc2)cc1)C(=O)NCCc1ccccc1)NO (stereo not given),4.2,22.2,inhibition [3]: Active; Activity (SH-SY5Y [4]): 11.3%; IC50 (Histone deacetylase): 4.4 µM
Nc1ccccc1NC(=O)CCCCCC(=O)N(Cc1ccccc1)C(Cc1ccccc1)C(=O)NC1CCCCC1 (stereo not given),–,91.6,–
CCCCCCCC(C(=O)NCCc1ccccc1)N(Cc1ccccc1)C(=O)CCCCCCC(=O)NO (stereo not given),–,53,–
O=C(CCCCCC(=O)N(Cc1ccccc1)C(Cc1ccccc1)C(=O)NCCc1ccccc1)NO (stereo not given),7.6,30.8,–
Nc1ccccc1NC(=O)CCCCCCC(=O)N(Cc1ccccc1)C(Cc1ccc(-c2ccccc2)cc1)C(=O)NCCc1ccccc1 (stereo not given),–,74,–
O=C(CCCCCCC(=O)Nc1ccccc1)NO [VORINOSTAT],–,–,Activity (SH-SY5Y [2]): 33.8%; Activity (SH-SY5Y [4]): 34%
CN(C(=O)CCCCCCC(=O)NO)C(Cc1ccccc1)C(=O)NCCc1ccccc1 (stereo not given),–,94.4,–
O=C(CCCCCC(=O)N(CCc1ccccc1)C(Cc1ccccc1)C(=O)NCc1ccccc1)NO (stereo not given),7.5,34.9,–
